Test [1] deals with T1, SGLT2 (Homo sapiens, UniProt P31639).
T1 construct: expressed in transfected cells
T1 sequence (P31639 1-672): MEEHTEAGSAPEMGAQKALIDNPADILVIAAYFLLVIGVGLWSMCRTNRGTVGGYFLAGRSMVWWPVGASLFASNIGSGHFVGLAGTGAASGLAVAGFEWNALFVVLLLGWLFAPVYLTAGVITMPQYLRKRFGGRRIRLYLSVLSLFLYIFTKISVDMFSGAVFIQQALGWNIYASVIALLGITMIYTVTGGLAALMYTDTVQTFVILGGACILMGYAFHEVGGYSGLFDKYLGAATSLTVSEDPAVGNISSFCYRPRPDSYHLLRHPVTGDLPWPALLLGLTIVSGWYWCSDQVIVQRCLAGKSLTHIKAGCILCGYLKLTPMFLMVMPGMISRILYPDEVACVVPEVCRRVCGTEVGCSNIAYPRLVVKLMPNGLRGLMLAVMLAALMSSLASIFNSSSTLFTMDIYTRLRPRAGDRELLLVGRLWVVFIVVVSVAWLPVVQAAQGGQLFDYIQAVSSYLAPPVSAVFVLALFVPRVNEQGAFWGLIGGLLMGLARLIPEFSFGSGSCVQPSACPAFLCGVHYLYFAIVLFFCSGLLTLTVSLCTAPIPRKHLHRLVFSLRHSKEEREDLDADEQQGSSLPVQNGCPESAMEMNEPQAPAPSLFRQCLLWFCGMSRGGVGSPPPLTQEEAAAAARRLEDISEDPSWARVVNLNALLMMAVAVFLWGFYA
The experiment in a line: 14C-AMG uptake in BHK cells transfected with SGLT2 (96-well cell-based assay). The conditions noted are these: 2 mM AMG, 37° C., 90 min. The text has this:
(§1) The compounds can be tested for their SGLT inhibition properties by means of BHK cells expressing SGLT1 and SGLT2. The production of the cells and the testing can be carried out as described below.
To construct the SGLT2 expression vector (KL224), the SLC5A2 gene (homologous to NM_003041) was amplified from a cDNA library using standard PCR technology and cloned over NheI/XhoI sites into PCI-neo expression vector (Promega) containing neomycin as a selection marker. In this vector, transcription uses the enhancer/promoter of human cytomegalovirus and the SV40 polyadenylation signal.
(§2) The final vector KL224 together with an additional vector containing a dihydrofolate reductase gene as a selection marker was introduced into cells. Transfection into BHK21 cells (ATCC CCL-10), cultivated in DMEM medium (GIBCO/BRL), supplemented with 10% foetal calf serum (FCS) and 20 mM glutamine, was carried out using calcium phosphate transfections according to Graham, F. L. and van der Ebb, A. J. (1973), Virology 52: 456 with 5-20 μg of uncut plasmids for 10^7 cells. Stable transfectants were selected in medium containing 1 mg/ml of G418 (GIBCO/BRL) and 20-5000 nM methotrexate as final concentration, where only cells which expressed the neomycin gene and overexpressed the dhfr gene were able to grow. After growth for 2-3 weeks, the cells were cloned (0.5 cells/well) and the clones were investigated for SGLT expression in radioactivity uptake tests.
(§3) The uptake of ^14C-α-methyl-D-glucopyranoside (AMG) in, for example, Xenopus oocytes injected with the corresponding cRNA has been described in principle (for example Wen-Sen Lee et al. (1994), J. Biol. Chem. 269, 12032-12039; Guofeng You et al. (1995), J. Biol. Chem. 270, 29365-29371).
(§4) A 96-well cell-based assay was developed and adapted to HTS requirements:
(§5) BHK cells (transfected with SGLT1 or SGLT2) were seeded into 96-well microtitre plates (Cultureplates, Perkin Elmer). After at least 24 h, medium was removed, and the cell layer was washed with assay buffer (140 mM NaCl, 2 mM KCl, 1 mM CaCl2, 1 mM MgCl2, 10 mM HEPES, 5 mM Tris, adjusted to pH 7.4 using 1 M KOH). After addition of 40 μl of assay buffer, 50 μl of AMG (50 μM for SGLT1 and 2 mM for SGLT2) in the presence or absence of compounds, the cells were incubated in a total volume of 100 μl at 37° C. for 90 min. Supernatant was removed by suction and discarded. Cells were washed and lysed by addition of 50 μl of water. After 10 min at room temperature, 200 μl of Micrsoscint 40 (Perkin Elmer) were added. The radioactivity was counted in a Topcount microplate scintillation counter (Perkin Elmer). The non-specific uptake was determined in sodium-free assay buffer (266 mM sucrose, 2 mM KCl, 1 mM CaCl2, 1 mM MgCl2, 10 mM HEPES, 5 mM Tris, adjusted to pH 7.4 using 1 M KOH).

Test [2] deals with T2, SGLT1 (Homo sapiens, UniProt P13866).
T2 construct: expressed in transfected cells
T2 sequence (P13866 1-664): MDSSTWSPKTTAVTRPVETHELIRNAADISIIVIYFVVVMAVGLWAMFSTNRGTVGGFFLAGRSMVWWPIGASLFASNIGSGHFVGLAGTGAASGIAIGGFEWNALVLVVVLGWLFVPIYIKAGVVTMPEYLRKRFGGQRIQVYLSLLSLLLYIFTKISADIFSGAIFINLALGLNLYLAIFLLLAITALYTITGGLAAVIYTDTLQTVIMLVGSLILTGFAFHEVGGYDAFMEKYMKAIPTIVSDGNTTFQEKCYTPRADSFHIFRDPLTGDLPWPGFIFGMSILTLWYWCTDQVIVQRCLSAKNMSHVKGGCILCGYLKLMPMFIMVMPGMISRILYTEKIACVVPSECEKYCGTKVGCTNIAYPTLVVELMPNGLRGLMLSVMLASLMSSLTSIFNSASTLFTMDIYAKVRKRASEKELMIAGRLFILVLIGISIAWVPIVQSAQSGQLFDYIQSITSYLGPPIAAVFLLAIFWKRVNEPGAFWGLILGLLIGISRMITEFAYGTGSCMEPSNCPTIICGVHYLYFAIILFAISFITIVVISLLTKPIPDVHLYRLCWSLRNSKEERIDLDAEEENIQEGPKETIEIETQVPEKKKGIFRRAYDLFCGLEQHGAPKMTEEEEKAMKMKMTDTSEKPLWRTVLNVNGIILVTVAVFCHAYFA
Nature of the test: 14C-AMG uptake in BHK cells transfected with SGLT1 (96-well cell-based assay). As to conditions: 50 μM AMG, 37° C., 90 min.
Description: as §1
To construct the SGLT1 expression vector (KL225), the SLC5A1 gene (homologous to NM_000343) was amplified from a cDNA library using standard PCR technology and cloned over NheI/XhoI sites into the pcDNA3.1 expression vector (Invitrogen) containing neomycin as a selection marker. In this vector, transcription uses the enhancer/promoter of human cytomegalovirus.
as §2, with “KL225” for “KL224”
as §3, §4, §5

A value given as a limit tells only on which side of the number the result lay.

Consider `Cc1cccc(C)c1Cn1c(-c2ccccc2OC2CCNC2=O)nc2ccccc21` (stereo not shown) [Compound A26, 3-{2-[1-(2,6-Dimethylbenzyl)-1H-benzimidazol-2-yl]phenoxy}pyrrolidin-2-one], for which the half-inhibitory concentration (IC50) in test [1] is 1 to 10 µM; in test [2], greater than 10 µM.
In the same order, the values of `Cc1cccc(C)c1Cn1c(-c2ccccc2OCC(N)=O)nc2cc(F)c(F)cc21` [Compound A5, 2-{2-[1-(2,6-Dimethylbenzyl)-5,6-difluoro-1H-benzimidazol-2-yl]phenoxy}acetamide] are 0.01 to 1 µM and greater than 10 µM.
For `COc1cccc(-c2nc3ccccc3n2Cc2c(C)cccc2C)c1OCC(N)=O` [Compound A11, 2-{2-[1-(2,6-Dimethylbenzyl)-1H-benzimidazol-2-yl]-6-methoxyphenoxy}acetamide], the concentration for half-maximal inhibition (IC50) in test [1] is 1 to 10 µM.
Take `Cc1cccc(Cl)c1Cn1c(-c2ccccc2OCC(N)=O)nc2ccccc21` [Compound A22, 2-{2-[1-(2-Chloro-6-methylbenzyl)-1H-benzimidazol-2-yl]phenoxy}acetamide]: the IC50 is 1 to 10 µM in test [1] and greater than 10 µM in test [2].
For the compound `Cc1cccc(C)c1Cn1c(-c2cccc(C)c2OCC(N)=O)nc2ccccc21` [Compound A12, 2-{2-[1-(2,6-Dimethylbenzyl)-1H-benzimidazol-2-yl]-6-methylphenoxy}acetamide], the concentration for half-maximal inhibition (IC50) in test [1] was 1 to 10 µM; in test [2], greater than 10 µM.
As to `Cc1cccc(C)c1Cn1c(-c2ccccc2OCC(N)=O)nc2cccc(Cl)c21` [Compound A24, 2-{2-[7-Chloro-1-(2,6-dimethylbenzyl)-1H-benzimidazol-2-yl]phenoxy}acetamide], the 50% inhibitory concentration (IC50) lay within 0.01 to 1 µM in test [1] and 1 to 10 µM in test [2].
As to `CNc1nnc(-c2ccccc2-c2nc3ccccc3n2Cc2c(C)cccc2C)o1` [Compound A31], the IC50 in test [1] fell in the range of 0.01 to 1 µM.
With `NC(=O)COc1ccccc1-c1nc2cc(F)ccc2n1Cc1c(Cl)cccc1Cl` [Compound A19, 2-{2-[1-(2,6-Dichlorobenzyl)-5-fluoro-1H-benzimidazol-2-yl]phenoxy}acetamide], the half-inhibitory concentration (IC50) was 1 to 10 µM in test [1] and greater than 10 µM in test [2].
With `Cc1cc(C)c(Cn2c(-c3ccccc3OCC(N)=O)nc3ccc(F)cc32)c(C)c1` [Compound A6, 2-{2-[6-Fluoro-1-(2,4,6-trimethylbenzyl)-1H-benzimidazol-2-yl]phenoxy}acetamide], the 50% inhibitory concentration (IC50) in test [1] and in test [2] was greater than 10 µM each time.
In the case of `Cc1cccc(C)c1Cn1c(-c2ccccc2OCC(N)=O)nc2ccccc21` [Compound A2, 2-{2-[1-(2,6-dimethylbenzyl)-1H-benzimidazol-2-yl]-phenoxy}acetamide], the IC50 in test [1] is 0.01 to 1 µM; in test [2], greater than 10 µM.
Regarding `Cc1cccc(C)c1Cn1c(-c2ccccc2OCC(N)=O)nc2ccc(F)c(F)c21` [Compound A29, 2-{2-[1-(2,6-Dimethylbenzyl)-6,7-difluoro-1H-benzimidazol-2-yl]phenoxy}acetamide], the half-inhibitory concentration (IC50) in test [1] is 1 to 10 µM; in test [2] it was greater than 10 µM.
Take `Cc1cccc(C)c1Cn1c(-c2ncccc2OCC(N)=O)nc2ccccc21` [Compound A16, 2-{2-[1-(2,6-Dimethylbenzyl)-1H-benzimidazol-2-yl]pyridin-3-yloxy}acetamide]: in test [1], the IC50 is greater than 10 µM.
Regarding `COc1ccc(-c2nc3ccccc3n2Cc2c(C)cccc2C)c(OCC(N)=O)c1` [Compound A13, 2-{2-[1-(2,6-Dimethylbenzyl)-1H-benzimidazol-2-yl]-5-methoxyphenoxy}acetamide], the IC50 was 1 to 10 µM in test [1] and greater than 10 µM in test [2].
Regarding `NC(=O)COc1ccccc1-c1nc2ccccc2n1Cc1ccccc1` [Compound A8, 2-[2-(1-Benzyl-1H-benzimidazol-2-yl)phenoxy]-acetamide], the half-maximal inhibitory concentration (IC50) in test [1] and in test [2] was greater than 10 µM throughout.
For the compound `Cc1cccc(C)c1Cn1c(-c2ccccc2OCC(N)=O)nc2ccc(F)cc21` [Compound A4, 2-{2-[1-(2,6-Dimethylbenzyl)-6-fluoro-1H-benzimidazol-2-yl]phenoxy}acetamide], the half-inhibitory concentration (IC50) in test [1] was 0.01 to 1 µM; in test [2], greater than 10 µM.
In the same order, the values of `Cc1cccc(C)c1Cn1c(-c2cccc(F)c2OCC(N)=O)nc2ccccc21` [Compound A10, 2-{2-[1-(2,6-Dimethylbenzyl)-1H-benzimidazol-2-yl]-6-fluorophenoxy}acetamide] are 0.01 to 1 µM and greater than 10 µM.
In the same order, the values of `NC(=O)COc1ccccc1-c1nc2cccc(Cl)c2n1Cc1c(Cl)cccc1Cl` [Compound A21, 2-{2-[7-Chloro-1-(2,6-dichlorobenzyl)-1H-benzimidazol-2-yl]phenoxy}acetamide] are 1 to 10 µM and greater than 10 µM.
In the same order, the values of `Cc1ccccc1Cn1c(-c2ccccc2OCC(N)=O)nc2ccccc21` [Compound A7, 2-{2-[1-(2-Methylbenzyl)-1H-benzimidazol-2-yl]-phenoxy}acetamide] are 1 to 10 µM and greater than 10 µM.
`Cc1cccc(C)c1Cn1c(-c2c(F)cccc2OCC(N)=O)nc2ccccc21` [Compound A3, 2-{2-[1-(2,6-Dimethylbenzyl)-1H-benzimidazol-2-yl]-3-fluorophenoxy}acetamide] displayed an IC50 in test [1] of 0.01 to 1 µM.

Values taken from patent US8119675B2, “Benzimidazole derivatives” (Merck Patent GmbH, priority 2007, dated 2012).
